Measurements from ChEMBL document CHEMBL4311986, “Synthesis and biological evaluation of new multi-target 3-(1H-indol-3-yl)pyrrolidine-2,5-dione derivatives with potential antidepressant effect” (Eur J Med Chem, 2019).
pKi: −log10 of the molar value. Counter-ions that a name gives are not always drawn.

Key:
[1] = biological target: D(2) dopamine receptor (Homo sapiens, UniProt P14416); test: Displacement of [3H]-raclopride from human D2L receptor expressed in HEK293 cells incubated for 1 hr by liquid scintillation counting method; type: cell-based
[2] = biological target: T1, 5-hydroxytryptamine receptor 1A (Homo sapiens, UniProt P08908); test: biochemical
T1 sequence (P08908 whole entry): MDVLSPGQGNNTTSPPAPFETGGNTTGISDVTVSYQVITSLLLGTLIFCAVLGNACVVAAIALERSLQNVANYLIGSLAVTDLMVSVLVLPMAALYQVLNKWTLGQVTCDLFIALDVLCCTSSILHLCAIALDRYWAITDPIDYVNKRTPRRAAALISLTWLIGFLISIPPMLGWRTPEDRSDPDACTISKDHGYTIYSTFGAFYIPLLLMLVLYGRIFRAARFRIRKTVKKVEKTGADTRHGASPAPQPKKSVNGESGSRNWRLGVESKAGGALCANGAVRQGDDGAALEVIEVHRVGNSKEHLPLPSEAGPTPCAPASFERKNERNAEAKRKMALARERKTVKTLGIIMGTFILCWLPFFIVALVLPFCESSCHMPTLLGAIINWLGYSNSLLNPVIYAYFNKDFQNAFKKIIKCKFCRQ

[3] = system: Mus musculus; test: Induction of hypothermia in CD-1 mouse assessed as change in body temperature at 5 mg/kg, ip measured after 120 mins by thermometric method; type: functional, organism-based
[4] = system: Mus musculus; test: Induction of hypothermia in CD-1 mouse assessed as change in body temperature at 20 mg/kg, ip measured after 90 mins by thermometric method; type: functional, organism-based
[5] = system: Mus musculus; test: Induction of hypothermia in CD-1 mouse assessed as change in body temperature at 15 mg/kg, ip measured after 30 mins by thermometric method (reference value: -0.2 to 0.4 deg C); type: functional, organism-based
[6] = system: Mus musculus; test: Induction of hypothermia in CD-1 mouse assessed as change in body temperature at 15 mg/kg, ip pretreated for 60 mins with 5-HT1AR antagonist WAY100635 followed by compound treatment and measured after 30 mins by thermometric method (reference value: -0.1 to 0.4 deg C); type: functional, organism-based
[7] = system: Mus musculus; test: Induction of hypothermia in CD-1 mouse assessed as change in body temperature at 10 mg/kg, ip measured after 60 mins by thermometric method; type: functional, organism-based
[8] = system: Mus musculus; test: Induction of hypothermia in CD-1 mouse assessed as change in body temperature at 20 mg/kg, ip measured after 30 mins by thermometric method; type: functional, organism-based
[9] = system: Mus musculus; test: Induction of hypothermia in CD-1 mouse assessed as change in body temperature at 15 mg/kg, ip measured after 60 mins by thermometric method (reference value: -0.2 to 0.5 deg C); type: functional, organism-based
[10] = Half life in human liver microsomes at 1 uM measured for 5 to 30 mins in presence of NADPH by LC-MS/MS analysis; type: ADME, Microsome
[11] = system: Mus musculus; test: Induction of hypothermia in CD-1 mouse assessed as change in body temperature at 5 mg/kg, ip measured after 30 mins by thermometric method; type: functional, organism-based
[12] = system: Mus musculus; test: Induction of hypothermia in CD-1 mouse assessed as change in body temperature at 5 mg/kg, ip measured after 60 mins by thermometric method; type: functional, organism-based
[13] = biological target: Sodium-dependent serotonin transporter (Homo sapiens, UniProt P31645); test: Displacement of [3H]-imipramine from human serotonin transporter expressed in HEK293 cells membranes incubated for 30 mins by microbeta scintillation counting analysis; type: cell membranes
[14] = system: Mus musculus; test: Induction of hypothermia in CD-1 mouse assessed as change in body temperature at 20 mg/kg, ip measured after 120 mins by thermometric method; type: functional, organism-based
[15] = system: Mus musculus; test: Induction of hypothermia in CD-1 mouse assessed as change in body temperature at 10 mg/kg, ip measured after 120 mins by thermometric method; type: functional, organism-based
[16] = system: Mus musculus; test: Induction of hypothermia in CD-1 mouse assessed as change in body temperature at 10 mg/kg, ip measured after 90 mins by thermometric method; type: functional, organism-based
[17] = system: Mus musculus; test: Induction of hypothermia in CD-1 mouse assessed as change in body temperature at 15 mg/kg, ip measured after 120 mins by thermometric method (reference value: -0.1 to 0.3 deg C); type: functional, organism-based
[18] = system: Mus musculus; test: Induction of hypothermia in CD-1 mouse assessed as change in body temperature at 20 mg/kg, ip measured after 60 mins by thermometric method; type: functional, organism-based
[19] = system: Mus musculus; test: Induction of hypothermia in CD-1 mouse assessed as change in body temperature at 5 mg/kg, ip measured after 90 mins by thermometric method; type: functional, organism-based
[20] = biological target: 5-hydroxytryptamine receptor 7 (Homo sapiens, UniProt P34969); test: Displacement of [3H]-5-CT from human 5HT7 receptor expressed in HEK293 cells incubated for 1 hr by liquid scintillation counting method; type: cell-based
[21] = system: Mus musculus; test: Induction of hypothermia in CD-1 mouse assessed as change in body temperature at 10 mg/kg, ip measured after 30 mins by thermometric method; type: functional, organism-based
[22] = system: Mus musculus; test: Induction of hypothermia in CD-1 mouse assessed as change in body temperature at 15 mg/kg, ip pretreated for 30 mins with 5-HT1AR antagonist WAY100635 followed by compound treatment and measured after 30 mins by thermometric method (reference value: -0.1 to 0.1 deg C); type: functional, organism-based
[23] = system: Mus musculus; test: Induction of hypothermia in CD-1 mouse assessed as change in body temperature at 15 mg/kg, ip measured after 90 mins by thermometric method (reference value: -0.3 to 0.3 deg C); type: functional, organism-based
[24] = biological target: 5-hydroxytryptamine receptor 6 (Homo sapiens, UniProt P50406); test: Displacement of [3H]-LSD from human 5-HT6 receptor expressed in HEK293 cells incubated for 1 hr by liquid scintillation counting method; type: cell-based
[25] = system: Mus musculus; test: Induction of hypothermia in CD-1 mouse assessed as change in body temperature at 10 mg/kg, ip pretreated for 60 mins with 5-HT1AR antagonist WAY100635 followed by compound treatment and measured after 30 mins by thermometric method; type: functional, organism-based
[26] = system: Mus musculus; test: Induction of hypothermia in CD-1 mouse assessed as change in body temperature at 10 mg/kg, ip pretreated for 30 mins with 5-HT1AR antagonist WAY100635 followed by compound treatment and measured after 30 mins by thermometric method; type: functional, organism-based
[27] = biological target: T2, 5-hydroxytryptamine receptor 2C (Homo sapiens, UniProt P28335); test: Binding affinity to 5-HT2CR (unknown origin)
T2 sequence (P28335 whole entry): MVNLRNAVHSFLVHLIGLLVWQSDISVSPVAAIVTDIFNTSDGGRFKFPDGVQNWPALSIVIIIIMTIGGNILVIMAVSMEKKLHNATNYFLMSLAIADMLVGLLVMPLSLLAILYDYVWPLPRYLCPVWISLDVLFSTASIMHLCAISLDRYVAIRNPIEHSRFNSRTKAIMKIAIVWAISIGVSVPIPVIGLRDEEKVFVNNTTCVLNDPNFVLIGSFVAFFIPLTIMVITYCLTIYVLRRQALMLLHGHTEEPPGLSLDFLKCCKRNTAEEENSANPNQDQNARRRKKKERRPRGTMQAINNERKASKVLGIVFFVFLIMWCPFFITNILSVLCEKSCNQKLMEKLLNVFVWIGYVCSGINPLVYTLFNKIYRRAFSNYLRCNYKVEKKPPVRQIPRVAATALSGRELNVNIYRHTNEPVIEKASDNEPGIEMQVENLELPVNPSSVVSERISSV

Sequence of Sodium-dependent serotonin transporter (P31645 whole entry): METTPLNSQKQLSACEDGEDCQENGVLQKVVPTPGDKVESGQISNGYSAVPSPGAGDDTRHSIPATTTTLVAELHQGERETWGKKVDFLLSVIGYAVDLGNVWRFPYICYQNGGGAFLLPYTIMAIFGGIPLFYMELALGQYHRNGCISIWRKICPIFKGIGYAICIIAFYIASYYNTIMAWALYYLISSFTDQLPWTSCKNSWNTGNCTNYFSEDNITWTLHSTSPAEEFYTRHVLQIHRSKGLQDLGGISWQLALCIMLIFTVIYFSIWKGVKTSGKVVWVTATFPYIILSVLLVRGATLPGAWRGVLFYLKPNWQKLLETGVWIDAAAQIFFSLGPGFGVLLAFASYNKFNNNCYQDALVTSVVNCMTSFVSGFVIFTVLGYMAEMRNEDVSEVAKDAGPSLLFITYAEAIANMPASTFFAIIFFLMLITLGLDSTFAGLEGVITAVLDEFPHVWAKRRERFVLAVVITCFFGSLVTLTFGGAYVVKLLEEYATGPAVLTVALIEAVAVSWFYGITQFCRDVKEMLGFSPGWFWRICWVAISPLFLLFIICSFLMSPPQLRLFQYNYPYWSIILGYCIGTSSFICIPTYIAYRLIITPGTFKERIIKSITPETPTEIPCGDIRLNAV
Sequence of 5-hydroxytryptamine receptor 6 (P50406 whole entry): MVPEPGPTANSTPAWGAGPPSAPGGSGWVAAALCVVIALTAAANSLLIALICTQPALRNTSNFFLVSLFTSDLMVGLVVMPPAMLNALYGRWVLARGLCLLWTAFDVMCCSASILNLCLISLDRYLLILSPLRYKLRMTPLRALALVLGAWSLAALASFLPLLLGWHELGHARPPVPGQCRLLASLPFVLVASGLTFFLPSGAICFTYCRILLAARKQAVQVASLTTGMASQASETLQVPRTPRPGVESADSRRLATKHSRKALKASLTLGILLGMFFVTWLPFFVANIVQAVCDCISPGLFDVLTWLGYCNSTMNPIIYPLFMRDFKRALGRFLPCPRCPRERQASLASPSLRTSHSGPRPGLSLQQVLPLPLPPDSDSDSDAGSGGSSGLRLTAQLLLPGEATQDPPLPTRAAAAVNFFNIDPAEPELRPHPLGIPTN
Sequence of 5-hydroxytryptamine receptor 7 (P34969 whole entry): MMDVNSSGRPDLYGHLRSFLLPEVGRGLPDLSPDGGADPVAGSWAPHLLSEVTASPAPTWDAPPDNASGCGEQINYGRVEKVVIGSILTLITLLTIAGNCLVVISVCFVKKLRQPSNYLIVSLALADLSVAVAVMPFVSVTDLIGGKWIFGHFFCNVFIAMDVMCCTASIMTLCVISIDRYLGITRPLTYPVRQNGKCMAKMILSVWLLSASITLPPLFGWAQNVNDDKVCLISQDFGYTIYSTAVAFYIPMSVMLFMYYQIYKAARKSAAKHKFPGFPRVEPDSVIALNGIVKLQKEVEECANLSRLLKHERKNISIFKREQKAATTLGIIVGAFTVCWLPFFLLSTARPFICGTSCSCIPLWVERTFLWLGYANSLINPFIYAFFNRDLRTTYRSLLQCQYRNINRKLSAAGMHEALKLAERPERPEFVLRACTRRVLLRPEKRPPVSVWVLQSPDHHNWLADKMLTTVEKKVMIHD
Sequence of D(2) dopamine receptor (P14416 whole entry): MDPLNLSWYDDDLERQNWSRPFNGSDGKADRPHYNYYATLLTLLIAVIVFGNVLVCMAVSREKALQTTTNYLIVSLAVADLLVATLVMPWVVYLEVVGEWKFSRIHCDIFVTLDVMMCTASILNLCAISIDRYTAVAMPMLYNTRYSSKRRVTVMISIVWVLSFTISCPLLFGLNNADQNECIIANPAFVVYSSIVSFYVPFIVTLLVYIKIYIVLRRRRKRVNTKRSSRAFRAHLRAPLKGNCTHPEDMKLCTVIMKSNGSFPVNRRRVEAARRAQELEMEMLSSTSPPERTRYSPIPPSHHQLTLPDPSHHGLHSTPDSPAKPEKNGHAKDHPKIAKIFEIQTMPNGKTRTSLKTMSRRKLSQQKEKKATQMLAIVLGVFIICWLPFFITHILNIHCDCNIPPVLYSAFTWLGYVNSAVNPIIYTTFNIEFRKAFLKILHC

## COc1ccc2[nH]cc(C3CCN(CCCCN4C(=O)CC(c5c[nH]c6ccc(OC)cc56)C4=O)CC3)c2c1 (centres undefined)
[1]
  pKi: 6.66
[2]
  pKi: 8.64
[3]
  deltaT: 0.4 °C
[4]
  deltaT: -0.6 °C
[5]
  deltaT: -0.9 °C
[6]
  deltaT: 0 °C
[7]
  deltaT: 0.6 °C
[8]
  deltaT: -3.1 °C
[9]
  deltaT: 0.2 °C
[10]
  half-life at 1 µM: 9.7 min
[11]
  deltaT: 0.2 °C
[12]
  deltaT: 0.3 °C
[13]
  pKi: 6.51
[14]
  deltaT: -0.5 °C
[15]
  deltaT: 0.4 °C
[16]
  deltaT: 0.6 °C
[17]
  deltaT: 0.3 °C
[18]
  deltaT: -1.2 °C
[19]
  deltaT: 0.2 °C
[20]
  pKi: 6.49
[21]
  deltaT: -0.5 °C
[22]
  deltaT: 0.8 °C
[23]
  deltaT: 0.5 °C
[24]
  pKi: 6.37

## COc1ccc2[nH]cc(C3CCN(CCCCN4C(=O)CC(c5c[nH]c6ccc(F)cc56)C4=O)CC3)c2c1 (centres undefined)
[1]
  pKi: 7.70
[2]
  pKi: 8.49
[3]
  deltaT: 0.8 °C
[4]
  deltaT: -0.6 °C
[25]
  deltaT: 0.8 °C
[7]
  deltaT: 0.2 °C
[8]
  deltaT: -3.2 °C
[10]
  half-life at 1 µM: 9.9 min
[11]
  deltaT: 0.4 °C
[12]
  deltaT: 0.6 °C
[13]
  pKi: 6.70
[14]
  deltaT: -0.2 °C
[15]
  deltaT: 0.3 °C
[26]
  deltaT: -0.4 °C
[16]
  deltaT: 0.2 °C
[18]
  deltaT: -1.4 °C
[19]
  deltaT: 0.6 °C
[20]
  pKi: 6.34
[21]
  deltaT: -1.1 °C
[24]
  pKi: 7.15

## COc1ccc2[nH]cc(C3CC(=O)N(CCCCN4CCC(c5c[nH]c6ccc(F)cc56)CC4)C3=O)c2c1 (centres undefined)
[1]
  pKi: 7.21
[2]
  pKi: 8.31
[3]
  deltaT: -0.4 °C
[4]
  deltaT: 0.6 °C
[25]
  deltaT: -0.2 °C
[7]
  deltaT: -0.1 °C
[8]
  deltaT: -1.8 °C
[10]
  half-life at 1 µM: 9.9 min
[11]
  deltaT: -0.1 °C
[12]
  deltaT: 0.4 °C
[13]
  pKi: 7.76
[14]
  deltaT: 0.6 °C
[15]
  deltaT: 0.4 °C
[26]
  deltaT: -0.1 °C
[16]
  deltaT: 0.3 °C
[18]
  deltaT: 0.5 °C
[19]
  deltaT: 0.1 °C
[20]
  pKi: 6.19
[21]
  deltaT: -1.3 °C
[24]
  pKi: 7.07

## O=C1CC(c2c[nH]c3ccc(F)cc23)C(=O)N1CCCCN1CCC(c2c[nH]c3ccc(F)cc23)CC1 (centres undefined)
[1]
  pKi: 7.72
[2]
  pKi: 8.15
[3]
  deltaT: 0.3 °C
[4]
  deltaT: 0.1 °C
[25]
  deltaT: 0.4 °C
[7]
  deltaT: -0.1 °C
[8]
  deltaT: -2 °C
[10]
  half-life at 1 µM: 8.6 min
[11]
  deltaT: 0.4 °C
[12]
  deltaT: 0.2 °C
[13]
  pKi: 7.49
[14]
  deltaT: 0.5 °C
[15]
  deltaT: 0.4 °C
[26]
  deltaT: 0.4 °C
[16]
  deltaT: 0.3 °C
[18]
  deltaT: -0.4 °C
[19]
  deltaT: 0.4 °C
[20]
  pKi: 5.94
[21]
  deltaT: -1 °C
[24]
  pKi: 6.52

## CC[C@@H](CO)NC(=O)[C@@H]1C=C2c3cccc4c3c(cn4C)C[C@H]2N(C)C1 [METHYSERGIDE MALEATE]
[27]
  pKi: 9.10

## O=C1CC(c2c[nH]c3ccc(F)cc23)C(=O)N1CCCCN1CCC(c2c[nH]c3ccccc23)CC1 (centres undefined)
[1]
  pKi: 6.72
[2]
  pKi: 7.89
[3]
  deltaT: -0.3 °C
[4]
  deltaT: -0.2 °C
[5]
  deltaT: -1.8 °C
[6]
  deltaT: 0.3 °C
[7]
  deltaT: 0.1 °C
[8]
  deltaT: -2.3 °C
[9]
  deltaT: -0.7 °C
[10]
  half-life at 1 µM: 10 min
[11]
  deltaT: -0.4 °C
[12]
  deltaT: -0.2 °C
[13]
  pKi: 7.29
[14]
  deltaT: -0.6 °C
[15]
  deltaT: -0.2 °C
[16]
  deltaT: 0 °C
[17]
  deltaT: -0.4 °C
[18]
  deltaT: -0.7 °C
[19]
  deltaT: -0.2 °C
[20]
  pKi: 7.30
[21]
  deltaT: -0.6 °C
[22]
  deltaT: 0.1 °C
[23]
  deltaT: -0.4 °C
[24]
  pKi: 7.54

## COc1ccc2[nH]cc(C3CC(=O)N(CCCCN4CCC(c5c[nH]c6ccccc56)CC4)C3=O)c2c1 (centres undefined)
[1]
  pKi: 7.80
[2]
  pKi: 8.20
[3]
  deltaT: -0.1 °C
[4]
  deltaT: -1.1 °C
[25]
  deltaT: 0.5 °C
[7]
  deltaT: -0.4 °C
[8]
  deltaT: -2.9 °C
[10]
  half-life at 1 µM: 10.5 min
[11]
  deltaT: -0.2 °C
[12]
  deltaT: 0 °C
[13]
  pKi: 6.15
[14]
  deltaT: -0.9 °C
[15]
  deltaT: -0.4 °C
[26]
  deltaT: 0.4 °C
[16]
  deltaT: -0.4 °C
[18]
  deltaT: -1.5 °C
[19]
  deltaT: 0 °C
[20]
  pKi: 7.60
[21]
  deltaT: -1.3 °C
[24]
  pKi: 7.09
